Experimental data published in patent US8734775B2, “Chemokine derived peptides that bind with chemokine receptor CXCR3 and uses for chronic wound and angiogenesis inhibition treatments” (University of Pittsburgh, priority 2011, dated 2014).

Legend:
CXCR3 on HMEC-1 cells = biological target: T1, CXCR3 on HMEC-1 cells (Homo sapiens, UniProt P49682); assay: Flow cytometry binding of biotin-tagged peptide to HMEC-1 cells
T1 construct: HMEC-1 cells express CXCR3; endogenous in cells; host or cells: HMEC-1 (human dermal microvascular endothelial cells)
T1 sequence (P49682 1-415 isoform P49682-2): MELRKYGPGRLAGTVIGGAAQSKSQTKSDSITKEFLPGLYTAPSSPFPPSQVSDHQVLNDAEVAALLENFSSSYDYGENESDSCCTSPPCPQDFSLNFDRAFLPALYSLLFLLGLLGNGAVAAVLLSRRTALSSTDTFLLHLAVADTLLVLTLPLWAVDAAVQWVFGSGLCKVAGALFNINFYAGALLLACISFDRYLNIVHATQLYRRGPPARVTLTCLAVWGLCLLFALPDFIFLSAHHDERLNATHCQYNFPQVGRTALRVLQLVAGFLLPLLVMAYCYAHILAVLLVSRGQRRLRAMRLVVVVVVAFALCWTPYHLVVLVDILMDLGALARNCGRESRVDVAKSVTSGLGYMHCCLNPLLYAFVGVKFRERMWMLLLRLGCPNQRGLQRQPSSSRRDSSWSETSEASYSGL
Method: In the various experiments described below, unless otherwise noted, Biotin labeling was accomplished according to the following procedure. Sulfo-NHS-LC-Biotin (Thermo Scientific 21327) was prepared to result in a 10 mM solution of Biotin. IP-10, IP-10dp or anti-CXCR3 neutralizing antibody were dissolved in PBS according to result in a 20-fold molar excess of biotin reagent to give a 4-6 biotin groups per peptide molecule. The biotin reagent and IP-10 and/or IP-10dp was mixed and incubated on ice for 2 hours. Appropriate controls were used to determine the levels of biotin incorporation. HMEC-1 cells were washed in ice-cold PBS (pH 8) to remove amine-containing media and proteins. Cells were suspended and Sulfo-NHS-LC-Biotin label peptide was added. Mixture was incubated at 4° C. to reduce active internalization of the biotin reagent for 30 minutes. Cells were then washed three times in PBS+100 mM glycine to quench and remove excess biotin. Cells were then incubated with streptavidin conjugated with FITC and analyzed on a BD FACSCalbur flow cytometer.
To determine whether IP-10dp binds to CXCR3 on human dermal microvascular endothelial cells, we analyzed the ability of Sulfo-LC-Biotin tagged IP-10 and IP-10dp to bind to H MEC-1 cells using flow cytometery. […] The cells were then incubated with FITC conjugated with streptavidin, and then analyzed on a BD FACSCalbur flow cytometer. […]

HMEC-1 cells = assay: Scratch assay of endothelial cell motility; type: cell-based, human; conditions: 24 hours
Method: To determine whether IP-10dp inhibits endothelial cell motility, a conventional “scratch assay” was performed. ELR-negative chemokines, such as IP-10, inhibit fibroblast and endothelial cell motility. IP-10 has been shown in prior literature to inhibit HMEC-1 cells' motility in the presence of angiogenic growth factors VEGF165 and bFGF. Thus, a scratch assay comparison was conducted to examine whether, and to what extent, IP-10dp could mimic the inhibitory effects of the full length IP-10. HMEC-1 cells were plated at 2.5×10^5 cells/well in 12 well culture plates and grown to 80 to 85% confluence and quiesced in 0.5% dialyzed fetal bovine serum for 24 hours at 37° C. in 5% CO2. The cells were washed one time with PBS and then incubated in 0.5% dialyzed MDCB 131 media for 24 hours at 37° C. in 5% CO2. The cultures were scraped with a rubber policeman making a 1 mm wide denuded area. […] Images were taken at time zero and 24 hours, and the relative distance traveled by the cells into the a cellular area was determined using MetaMorph. The HMEC-1 culture images were analyzed for the ability of the cells to migrate into a denuded area over a 24 hour period in the presence or absence of VEGF165.

[1] = test system: HMEC-1 cells transfected with CXCR3 siRNA; assay: Scratch assay in cells transfected with CXCR3 siRNA; type: cell-based, human; conditions: CXCR3 knockdown; procedure of Experiment 2
Method: In the various experiments described below, to the extent not otherwise noted, CXCR3 siRNA transfection was preformed according to the procedure as previously described by Koh et al. (“Methods in Enzymology,” 2008, vol 443, p. 84), and summarized briefly as follows. HMEC-1 cells were plated in 6 well tissue culture plate at 4.0×10^5 cells/well in complete MCDB131 media and incubated overnight. The cells were ˜75% confluent. The media was removed and replaced with serum free Opti-Mem and incubated for 30 minutes. Dharmafect #4 was added to Opti-Mem to a final concentration of 2.5% (final volume […]) then incubated for 5 minutes at room temp. In parallel, CXCR3 siRNA was diluted in Opti-Mem to a final concentration of […] then incubated for 5 minutes at room temp. CXCR3 siRNA was a pool of equal concentration from Sigma and Santa Cruz. The Dharmafect solution was added to the CXCR3 siRNA pool and incubated for 20 minutes at room temp. […]
To determine whether IP-10dp inhibits endothelial cell motility, a conventional “scratch assay” was performed. […] Images were taken at time zero and 24 hours, and the relative distance traveled by the cells into the a cellular area was determined using MetaMorph. The HMEC-1 culture images were analyzed for the ability of the cells to migrate into a denuded area over a 24 hour period in the presence or absence of VEGF165. […]

Sequence: PESKAIKNLLKAVSKEMSKRSP (IP-10dp; listed as Homo sapiens) [synthetic fragment of IP-10 comprising residues 78-98, the C-terminal α-helical domain]
- binding to HMEC-1 cells (CXCR3 on HMEC-1 cells; Sulfo-LC-Biotin tagged peptide, streptavidin-FITC, flow cytometry): binds to human endothelial cells
- fluorescence intensity of binding to CXCR3 on HMEC-1 cells compared with full length IP-10 (CXCR3 on HMEC-1 cells; relative to control, biotin-tagged): slightly lower fluorescence intensity
- inhibition of endothelial cell migration, excess over IP-10 (HMEC-1 cells; IP-10dp 10 μM vs IP-10 200 ng/ml): 10%
- inhibition of HMEC-1 cell motility (HMEC-1 cells; IP-10dp 10 μM, with and without VEGF (100 ng/ml)): inhibited motility
- inhibition of VEGF-induced motility in CXCR3 siRNA-transfected cells [1]: unable to inhibit VEGF-induced motility
